Laboratory results from the NIST ThermoML archive (doi:10.1016/j.jct.2016.10.031).

Assay: molar heat capacity at constant pressure
Settings: 101.33 kPa, Small (less than 1 g) adiabatic calorimetry

CC(C)(C)c1ccc(Oc2ccc([N+](=O)[O-])cc2)cc1 [1-(tert-butyl)-4-(4-nitrophenoxy)benzene]
molar heat capacity at constant pressure [J/K/mol]
Settings	Crystal	Glass
88.13 K	121.72	–
88.7 K	–	125.63
88.93 K	122.72	–
89.5 K	–	126.55
89.73 K	123.64	–
90 K	123.8	–
90.3 K	–	127.29
90.54 K	124.63	–
91.1 K	–	128.38
91.34 K	125.55	–
91.91 K	–	129.29
92.15 K	126.55	–
92.71 K	–	130.12
92.95 K	127.29	–
93.52 K	–	131.12
93.75 K	128.13	–
94.32 K	–	132.03
94.56 K	129.21	–
95.13 K	–	132.87
95.36 K	130.12	–
95.93 K	–	133.7
96.17 K	131.04	–
96.73 K	–	134.69
96.97 K	132.03	–
97.54 K	–	135.44
97.77 K	132.87	–
98.34 K	–	136.44
98.58 K	133.78	–
99.14 K	–	137.35
99.38 K	134.61	–
99.95 K	–	138.35
100 K	135.53	–
100.19 K	135.53	–
100.75 K	–	139.43
100.99 K	136.44	–
101.55 K	–	140.18
101.79 K	137.27	–
102.35 K	–	141.01
102.59 K	138.27	–
103.16 K	–	142.01
103.4 K	139.18	–
103.96 K	–	142.76
104.2 K	140.1	–
104.76 K	–	143.67
105 K	141.18	–
105.56 K	–	144.67
105.8 K	141.93	–
106.36 K	–	145.42
106.6 K	142.84	–
107.16 K	–	146.17
107.4 K	143.67	–
107.96 K	–	147.25
108.21 K	144.51	–
108.77 K	–	148.25
109.01 K	145.5	–
109.57 K	–	149
109.81 K	146.25	–
110 K	146.42	–
110.37 K	–	149.83
110.61 K	147.17	–
111.17 K	–	150.74
111.42 K	148.08	–
111.97 K	–	151.66
112.22 K	149	–
112.78 K	–	152.74
113.02 K	149.74	–
113.58 K	–	153.57
113.82 K	150.57	–
114.38 K	–	154.32
114.63 K	151.57	–
115.18 K	–	155.23
115.43 K	152.57	–
115.99 K	–	156.23
116.23 K	153.24	–
116.79 K	–	156.89
117.04 K	154.32	–
117.59 K	–	157.81
117.84 K	155.15	–
118.4 K	–	158.72
118.64 K	155.98	–
119.2 K	–	159.8
119.45 K	156.81	–
120 K	157.31	160.64
120.25 K	157.89	–
120.81 K	–	161.47
121.06 K	158.56	–
121.61 K	–	162.22
121.86 K	159.64	–
122.41 K	–	163.13
122.66 K	160.3	–
123.21 K	–	164.21
123.47 K	161.22	–
124.02 K	–	164.88
124.27 K	162.13	–
124.82 K	–	165.96
125.07 K	162.96	–
125.62 K	–	166.54
125.87 K	163.79	–
126.42 K	–	167.37
126.68 K	164.71	–
127.23 K	–	168.2
127.48 K	165.54	–
128.03 K	–	169.2
128.28 K	166.54	–
128.83 K	–	170.03
129.09 K	167.45	–
129.63 K	–	170.95
129.89 K	168.2	–
130 K	168.2	–
130.43 K	–	171.94
130.69 K	169.03	–
131.24 K	–	172.53
131.49 K	170.03	–
132.04 K	–	173.27
132.3 K	170.86	–
132.84 K	–	174.35
133.1 K	171.69	–
133.64 K	–	175.19
133.9 K	172.77	–
134.44 K	–	176.02
134.71 K	173.61	–
135.25 K	–	176.93
135.51 K	174.44	–
136.05 K	–	177.85
136.31 K	175.1	–
136.85 K	–	178.76
137.11 K	176.02	–
137.65 K	–	179.76
137.92 K	176.85	–
138.45 K	–	180.67
138.72 K	177.93	–
139.25 K	–	181.5
139.52 K	178.68	–
140 K	179.01	–
140.06 K	–	182.42
140.32 K	179.43	–
140.86 K	–	183.25
141.12 K	180.26	–
141.66 K	–	184
141.93 K	181.34	–
142.46 K	–	184.83
142.72 K	181.92	–
143.25 K	–	185.83
143.53 K	182.83	–
144.06 K	–	186.66
144.33 K	183.83	–
144.86 K	–	187.57
145.13 K	184.75	–
145.66 K	–	188.41
145.93 K	185.66	–
146.46 K	–	189.32
146.73 K	186.49	–
147.26 K	–	190.15
